Measurements: patent US11884647B2, “Compounds and methods for targeting pathogenic blood vessels” (THE REGENTS OF THE UNIVERSITY OF CALIFORNIA, priority 2019, dated 2024)

system: tumor endothelial cells (LL/2 lung cancer tumor); test: Lung LL2 ex vivo model of tumor angiogenesis; format: cell-based, mouse; conditions: Lung LL2 ex vivo; Conc. 10 μm; 48 hrs
Procedure, shortened: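 Mouse LL2 tumor fragments (~0.5×0.5×0.3 mm) embedded in Matrigel and grown in endothelial growth medium at 37° C until endothelial outgrowth (about 4 days) before drug treatment. About 48 h after drug addition, stained 10 min with fluorescein diacetate/propidium iodide; live (green) and dead (red) cells imaged at 2× with fixed channel settings.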

For `CCCCCCCCCCOc1ccc(S(=O)(=O)c2cnc3ccc([S+](C)[O-])cc3c2N2CCC(N3CCC(N4CCCCC4)CC3)CC2)cc1F` (stereo not drawn) [compound 290, ([1,4′:1′,4″-terpiperidin]-1″-yl)-3-((4-(decyloxy)-3-fluorophenyl)sulfonyl)-6-(methylsulfinyl)quinoline], the “48 hrs (morphology observations after 48 hours)” value was “*** (100% of endothelial cells vesicularize in cell shape)”.

same assay, conditions: Lung LL2 ex vivo; Conc. 10 μm; drug treatment two days

Compound `CCCCCCCCCCOc1ccc(S(=O)(=O)c2cnc3ccc([S+](C)[O-])cc3c2N2CCC(N3CCC(N4CCCCC4)CC3)CC2)cc1F` (stereo not drawn) [compound 290, ([1,4′:1′,4″-terpiperidin]-1″-yl)-3-((4-(decyloxy)-3-fluorophenyl)sulfonyl)-6-(methylsulfinyl)quinoline] has a Cell death of 50%.

same assay, conditions: Lung LL2 ex vivo; Conc. 20 μm; (24 hrs)

`CCCCCCCCCCOc1ccc(S(=O)(=O)c2cnc3ccc([S+](C)[O-])cc3c2N2CCC(N3CCC(N4CCN(CCO)CC4)CC3)CC2)cc1` (stereo not drawn) [compound 292, 2-(4-(1′-(3-((4-(decyloxy)phenyl)sulfonyl)-6-(methylsulfinyl)quinolin-4-yl)-[1,4′-bipiperidin]-4-yl)piperazin-1-yl)ethan-1-ol] and `CCCCCCCCCCOc1ccc(S(=O)(=O)c2cnc3ccc([S+](C)[O-])cc3c2N2CCC(N3CCN(CCO)CC3)CC2)cc1F` (stereo not drawn) [compound 291, 2-(4-(1-(3-((4-(decyloxy)-3-fluorophenyl)sulfonyl)-6-(methylsulfinyl)quinolin-4-yl)piperidin-4-yl)piperazin-1-yl)ethan-1-ol] are the same in “Cell death (24 hrs)” value: 10% for the first, 10% for the second.

With `CCCCCCCCCCOc1ccc(S(=O)(=O)c2cnc3ccc([S+](C)[O-])cc3c2N2CCC(N3CCC(N4CCN(CCO)CC4)CC3)CC2)cc1` (stereo not drawn) [compound 292, 2-(4-(1′-(3-((4-(decyloxy)phenyl)sulfonyl)-6-(methylsulfinyl)quinolin-4-yl)-[1,4′-bipiperidin]-4-yl)piperazin-1-yl)ethan-1-ol] the “Morphology observations (24 hrs)” value was “* (50% or less of cells vesicularize in cell shape)”.
With `CCCCCCCCCCOc1ccc(S(=O)(=O)c2cnc3ccc([S+](C)[O-])cc3c2N2CCC(N3CCN(CCO)CC3)CC2)cc1F` (stereo not drawn) [compound 291, 2-(4-(1-(3-((4-(decyloxy)-3-fluorophenyl)sulfonyl)-6-(methylsulfinyl)quinolin-4-yl)piperidin-4-yl)piperazin-1-yl)ethan-1-ol] the “Morphology observations (24 hrs)” value was “* (50% or less of cells vesicularize in cell shape)”.

same assay, conditions: Lung LL2 ex vivo; Conc. 40 μm; drug treatment two days

`CCCCOc1ccc(S(=O)(=O)c2cnc3ccc(SC)cc3c2N2CCCN(S(=O)(=O)NCC(F)(F)F)CC2)cc1` [compound 353, 4-(3-((4-butoxyphenyl)sulfonyl)-6-(methylthio)quinolin-4-yl)-N-(2,2,2-trifluoroethyl)-1,4-diazepane-1-sulfonamide] and `CCCCOc1ccc(S(=O)(=O)c2cnc3ccc(SC)cc3c2N2CCCN(C3COC3)CC2)cc1` [compound 355, 3-((4-butoxyphenyl)sulfonyl)-6-(methylthio)-4-(4-(oxetan-3-yl)-1,4-diazepan-1-yl)quinoline] are the same in Cell death: 0% for the first, 0% for the second.

Work on `CCCCOc1ccc(S(=O)(=O)c2cnc3ccc(SC)cc3c2N2CCC(N3CCCC3CO)CC2)cc1` (stereo not drawn) [compound 350, (1-(1-(3-((4-butoxyphenyl)sulfonyl)-6-(methylthio)quinolin-4-yl)piperidin-4-yl)pyrrolidin-2-yl)methanol] yielded a Cell death of 20%.

same assay, conditions: Mus musculus, Endothelial cell, 48 h, read-out: Cell death

`CCCCOc1ccc(S(=O)(=O)c2cnc3ccc([S+](C)[O-])cc3c2N2CCC(N3CCC(N4CCCCC4)CC3)CC2)cc1` (stereo not drawn) [compound 237, 4-([1,4′:1′,4″-terpiperidin]-1″-yl)-3-((4-butoxyphenyl)sulfonyl)-6-(methylsulfinyl)quinoline] and `CCCCOc1ccc(S(=O)(=O)c2cnc3ccc(SC)cc3c2N2CCC(N3CCC(N4CCCCC4)CC3)CC2)cc1` [compound 231, 4-([1,4′:1′,4″-terpiperidin]-1″-yl)-3-((4-butoxyphenyl)sulfonyl)-6-(methylthio)quinoline] are the same in cytotoxicity at 40 µM: 100% for the first, 100% for the second.

Compared with `CCCCOc1ccc(S(=O)(=O)c2cnc3ccc([S+](C)[O-])cc3c2N2CCC(N3CCC(CO)CC3)CC2)cc1` (stereo not drawn) [compound 240, (1′-(3-((4-butoxyphenyl)sulfonyl)-6-(methylsulfinyl)quinolin-4-yl)-[1,4′-bipiperidin]-4-yl)methanol], `CCOC(=O)c1ccc2ncc(S(=O)(=O)c3ccc(OC)cc3)c(N3CCC(N4CCN(C)CC4)CC3)c2c1` [compound 171, ethyl 3-((4-methoxyphenyl)sulfonyl)-4-(4-(4-methylpiperazin-1-yl)piperidin-1-yl)quinoline-6-carboxylate] is higher in cytotoxicity at 40 µM: 30% for the first, 40% for the second.

`CCN(CC)CCOc1ccc(S(=O)(=O)c2cnc3ccc(SC)cc3c2N2CCCN(C)CC2)cc1` [compound 242, N,N-diethyl-2-(4-((4-(4-methyl-1,4-diazepan-1-yl)-6-(methylthio)quinolin-3-yl)sulfonyl)phenoxy)ethan-1-amine] and `CCCCOc1ccc(S(=O)(=O)c2cnc3ccc(C(=O)N(CC)CC)cc3c2N2CCCN(C)CC2)cc1` [compound 199, 3-((4-butoxyphenyl)sulfonyl)-N,N-diethyl-4-(4-methyl-1,4-diazepan-1-yl)quinoline-6-carboxamide] are the same in cytotoxicity at 40 µM: 30% for the first, 30% for the second.

Compared with `COc1ccc(S(=O)(=O)c2cnc3cc(OC)c(OC)cc3c2N2CCCN(CC3(O)CCCC3)CC2)cc1` [compound 325, 1-((4-(6,7-dimethoxy-3-((4-methoxyphenyl)sulfonyl)quinolin-4-yl)-1,4-diazepan-1-yl)methyl)cyclopentan-1-ol], `COc1ccc(S(=O)(=O)c2cnc3cc(OC)c(OC)cc3c2N2C[C@@H]3C[C@H]2CN3C)cc1` [compound 306, 6,7-dimethoxy-3-((4-methoxyphenyl)sulfonyl)-4-((1S,4S)-5-methyl-2,5-diazabicyclo[2.2.1]heptan-2-yl)quinoline] is higher in cytotoxicity at 40 µM: 30% for the first, 40% for the second.

`CCN(CC)CCN(CC)c1c(S(=O)(=O)c2ccc(OC)cc2)cnc2cc(OC)c(OC)cc12` [compound 296, N1-(6,7-dimethoxy-3-((4-methoxyphenyl)sulfonyl)quinolin-4-yl)-N1,N2,N2-triethylethane-1,2-diamine] and `CCN(CC)CCC(C)Nc1c(S(=O)(=O)c2ccc(OC)cc2)cnc2cc(OC)c(OC)cc12` (stereo not drawn) [compound 300, N3-(6,7-dimethoxy-3-((4-methoxyphenyl)sulfonyl)quinolin-4-yl)-N1,N1-diethylbutane-1,3-diamine] are the same in cytotoxicity at 40 µM: 20% for the first, 20% for the second.

Going from `CCCCOc1ccc(S(=O)(=O)c2cnc3ccc(C(=O)OCC)cc3c2N2CCCN(CCN3CCCC3)CC2)cc1` [compound 182, ethyl 3-((4-butoxyphenyl)sulfonyl)-4-(4-(2-(pyrrolidin-1-yl)ethyl)-1,4-diazepan-1-yl)quinoline-6-carboxylate] to `COc1ccc(S(=O)(=O)c2cnc3ccc(C(=O)N(C)C)cc3c2N2CCC(N3CCCC3=O)CC2)cc1` [compound 332, 3-((4-methoxyphenyl)sulfonyl)-N,N-dimethyl-4-(4-(2-oxopyrrolidin-1-yl)piperidin-1-yl)quinoline-6-carboxamid], the cytotoxicity at 40 µM falls from 100% to 0%.

Compound `COc1ccc(N2CCN(c3c(S(=O)(=O)c4ccc(OC)cc4)cnc4cc(OC)c(OC)cc34)CC2=O)cc1` [compound 318] has a cytotoxicity at 40 µM of 30%.

Compared with `CCCCCCCOc1ccc(S(=O)(=O)c2cnc3ccc(SC)cc3c2N2CCN(C3CCN(Cc4ccccc4)C3)CC2)cc1` (stereo not drawn) [compound 274, 4-(4-(1-benzylpyrrolidin-3-yl)piperazin-1-yl)-3-((4-(heptyloxy)phenyl)sulfonyl)-6-(methylthio)quinoline], `CCCCCCCOc1ccc(S(=O)(=O)c2cnc3ccc(SC)cc3c2N2CCC(N3CCN(CCO)CC3)CC2)cc1` [compound 250, 2-(4-(1-(3-((4-(heptyloxy)phenyl)sulfonyl)-6-(methylthio)quinolin-4-yl)piperidin-4-yl)piperazin-1-yl)ethan-1-ol] is higher in cytotoxicity at 20 µM: 10% for the first, 90% for the second.

Compared with `CCCCOc1ccc(S(=O)(=O)c2cnc3ccc(S(C)(=O)=O)cc3c2N2CCC(N3CCC(O)CC3)CC2)cc1` [compound 170, 1′-(3-((4-butoxyphenyl)sulfonyl)-6-(methylsulfonyl)quinolin-4-yl)-[1,4′-bipiperidin]-4-ol], `CCCCCCCCCCCCOc1ccc(S(=O)(=O)c2cnc3ccc([S+](C)[O-])cc3c2N2CCC(N3CCC(N4CCC(O)CC4)CC3)CC2)cc1` (stereo not drawn) [compound 374, 1″-(3-((4-(dodecyloxy)phenyl)sulfonyl)-6-(methylsulfinyl)quinolin-4-yl)-[1,4′:1′,4″-terpiperidin]-4-ol] is higher in cytotoxicity at 20 µM: 10% for the first, 20% for the second.

Compared with `COc1ccc(S(=O)(=O)c2cnc3ccc([N+](=O)[O-])cc3c2N2CCC(N3CCCCC3)CC2)cc1` [compound 114, 4-([1,4′-bipiperidin]-1′-yl)-3-((4-methoxyphenyl)sulfonyl)-6-nitroquinoline], `CCCCCCCCCCCCOc1ccc(S(=O)(=O)c2cnc3ccc([S+](C)[O-])cc3c2N2CCC(N3CCN(CCO)CC3)CC2)cc1` (stereo not drawn) [compound 339, 2-(4-(1-(3-((4-(dodecyloxy)phenyl)sulfonyl)-6-(methylsulfinyl)quinolin-4-yl)piperidin-4-yl)piperazin-1-yl)ethan-1-ol] is higher in cytotoxicity at 20 µM: 5% for the first, 50% for the second.

Going from `CCCCCCCCCCCCCCOc1ccc(S(=O)(=O)c2cnc3ccc([S+](C)[O-])cc3c2N2CCC(N3CCC(N4CCN(CCO)CC4)CC3)CC2)cc1` (stereo not drawn) [compound 345, 2-(4-(1′-(6-(methylsulfinyl)-3-((4-(tetradecyloxy)phenyl)sulfonyl)quinolin-4-yl)-[1,4′-bipiperidin]-4-yl)piperazin-1-yl)ethan-1-ol] to `CCCCCCCCCCCCOc1ccc(S(=O)(=O)c2cnc3ccc([S+](C)[O-])cc3c2N2CCC(N3CCC(N4CCN(C)CC4)CC3)CC2)cc1` (stereo not drawn) [compound 341, 3-((4-(dodecyloxy)phenyl)sulfonyl)-4-(4-(4-methylpiperazin-1-yl)-[1,4′-bipiperidin]-1′-yl)-6-(methylsulfinyl)quinoline], the cytotoxicity at 20 µM rises from 50% to 80%.

For `CCCCCCCCCCCCCCOc1ccc(S(=O)(=O)c2cnc3ccc([S+](C)[O-])cc3c2N2CCC(N3CCC(N4CCCC(O)C4)CC3)CC2)cc1F` (stereo not drawn) [compound 367, 1″-(3-((3-fluoro-4-(tetradecyloxy)phenyl)sulfonyl)-6-(methylsulfinyl)quinolin-4-yl)-[1,4′:1′,4″- terpiperidin]-3-ol], the cytotoxicity at 20 µM was 5%.

First: CCCCCCCOc1ccc(S(=O)(=O)c2cnc3ccc([S+](C)[O-])cc3c2N2CCN(CCN3CCCCC3)CC2)cc1 (stereo not drawn) [compound 282, 3-((4-(heptyloxy)phenyl)sulfonyl)-6-(methylsulfinyl)-4-(4-(2-(piperidin-1-yl)ethyl)piperazin-1-yl)quinoline]
Second: CCCCCCCCCCOc1ccc(S(=O)(=O)c2cnc3ccc([S+](C)[O-])cc3c2N2CCC(N3CCN(C)CC3)CC2)cc1 (stereo not drawn) [compound 264, 3-((4-(decyloxy)phenyl)sulfonyl)-4-(4-(4-methylpiperazin-1-yl)piperidin-1-yl)-6-(methylsulfinyl)quinoline]
The cytotoxicity at 10 µM of the first is lower: 10% for the first, 20% for the second.
